Assay results from ChEMBL document CHEMBL1201862, “PubChem BioAssay data set” (2004).
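In this assay, cells in 96-well plates receive the compound at five concentrations for 48 hours. Endpoints are linearly interpolated between the surrounding concentrations. At the GI50, growth is halved.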 Active and inactive are the calls of the source. Rule as the data show it: active = GI50 up to about 1.1 µM and inactive = higher.

Legend:
Assay in all cases: growth of human tumour cells (NCI), 48 h
MDA-N = tested on: MDA-N
OVCAR-4 = tested on: OVCAR-4
A498 = tested on: A498
PC-3 = tested on: PC-3
U-251 = tested on: U-251
OVCAR-5 = tested on: OVCAR-5
MDA-MB-231 = tested on: MDA-MB-231
UO-31 = tested on: UO-31
SNB-75 = tested on: SNB-75
UACC-62 = tested on: UACC-62
RPMI-8226 = tested on: RPMI-8226
Hs-578T = tested on: Hs-578T
IGROV-1 = tested on: IGROV-1
DU-145 = tested on: DU-145
SF-295 = tested on: SF-295
SR = tested on: SR

Row | SMILES | GI50 (MDA-N) | GI50 (OVCAR-4) | GI50 (A498) | GI50 (PC-3) | GI50 (U-251) | GI50 (OVCAR-5) | GI50 (MDA-MB-231) | GI50 (UO-31) | GI50 (SNB-75) | GI50 (UACC-62) | GI50 (RPMI-8226) | GI50 (Hs-578T) | GI50 (IGROV-1) | GI50 (DU-145) | GI50 (SF-295) | GI50 (SR)
1 | CCOC(=O)CSC1NC(C(=O)OC)CC1OC (centres undefined) | > 100 µM (inactive) | > 100 µM (inactive) | > 100 µM (inactive) | > 100 µM (inactive) | > 100 µM (inactive) | > 100 µM (inactive) | > 100 µM (inactive) | > 100 µM (inactive) | > 100 µM (inactive) | > 100 µM (inactive) | > 100 µM (inactive) | > 100 µM (inactive) | > 100 µM (inactive) | > 100 µM (inactive) | > 100 µM (inactive) | –
2 | Nc1ccn(C2CCC(CO)O2)c(=S)n1 (centres undefined) | > 100 µM (inactive) | > 10 µM (inactive) | > 100 µM (inactive) | > 100 µM (inactive) | > 100 µM (inactive) | > 100 µM (inactive) | > 100 µM (inactive) | > 100 µM (inactive) | 89.5 µM (inactive) | > 100 µM (inactive) | 35.8 µM (inactive) | > 100 µM (inactive) | > 100 µM (inactive) | > 100 µM (inactive) | > 100 µM (inactive) | > 100 µM (inactive)
3 | Nc1ncn2c(n1)nc1ccccc12 | > 100 µM (inactive) | > 100 µM (inactive) | 57 µM (inactive) | > 100 µM (inactive) | > 100 µM (inactive) | > 100 µM (inactive) | > 100 µM (inactive) | > 100 µM (inactive) | 3.51 µM (inactive) | > 100 µM (inactive) | > 100 µM (inactive) | > 100 µM (inactive) | > 100 µM (inactive) | > 100 µM (inactive) | > 100 µM (inactive) | > 100 µM (inactive)
4 | N[C@@H](Cc1ccccc1)C(=O)N1CCC[C@@H]1P(=O)(Oc1ccccc1)Oc1ccccc1 | > 100 µM (inactive) | > 100 µM (inactive) | > 100 µM (inactive) | 33.6 µM (inactive) | > 100 µM (inactive) | > 100 µM (inactive) | > 100 µM (inactive) | > 100 µM (inactive) | > 100 µM (inactive) | > 100 µM (inactive) | 96.4 µM (inactive) | > 100 µM (inactive) | > 100 µM (inactive) | > 100 µM (inactive) | > 100 µM (inactive) | –
5 | N[C@H]1CCCC[C@@H]1N1C(=O)c2ccccc2C1(O)c1ccc(Cl)cc1 (some centres undefined) | 11.8 µM (inactive) | 11.2 µM (inactive) | 13.7 µM (inactive) | 11.4 µM (inactive) | 12.6 µM (inactive) | 15.1 µM (inactive) | 12.9 µM (inactive) | 11.6 µM (inactive) | 1.31 µM (inactive) | 13 µM (inactive) | 2.61 µM (inactive) | 17 µM (inactive) | 12.6 µM (inactive) | 13.2 µM (inactive) | 16 µM (inactive) | 13.9 µM (inactive)
6 | O=[N+]([O-])c1ccc(C(c2c[nH]c3ccccc23)c2c[nH]c3ccccc23)cc1 | 11.6 µM (inactive) | 12 µM (inactive) | 16.1 µM (inactive) | 12.3 µM (inactive) | 11.8 µM (inactive) | 23.6 µM (inactive) | 12.4 µM (inactive) | 10.9 µM (inactive) | 4.8 µM (inactive) | 10.5 µM (inactive) | 1.45 µM (inactive) | 19 µM (inactive) | – | 4.47 µM (inactive) | 22.6 µM (inactive) | 4.5 µM (inactive)
7 | COc1ccc(-c2cc(-c3ccc(Nc4ccnc5cc(C(F)(F)F)ccc45)cc3)[nH]c(=O)c2C#N)cc1 | > 34.5 µM (inactive) | > 100 µM (inactive) | > 40 µM (inactive) | > 100 µM (inactive) | 9.57 µM (inactive) | > 66.5 µM (inactive) | 24.9 µM (inactive) | – | 8.24 µM (inactive) | 62.4 µM (inactive) | > 100 µM (inactive) | 10.1 µM (inactive) | > 81.5 µM (inactive) | > 84.7 µM (inactive) | > 32.7 µM (inactive) | 9.51 µM (inactive)
8 | COC(=O)c1sc2c(=O)c(C(=O)OC)c(C(=O)OC)sc2c(=O)c1C(=O)OC | > 100 µM (inactive) | > 100 µM (inactive) | > 100 µM (inactive) | > 100 µM (inactive) | > 80.9 µM (inactive) | > 100 µM (inactive) | > 100 µM (inactive) | > 100 µM (inactive) | > 100 µM (inactive) | > 100 µM (inactive) | > 100 µM (inactive) | > 64.1 µM (inactive) | > 67.8 µM (inactive) | > 100 µM (inactive) | > 100 µM (inactive) | 37.8 µM (inactive)
9 | CCN(CC)CC1CCCCN1CC(=O)N1c2ccccc2C(=O)Nc2cccnc21 (centres undefined) [OTENZEPAD] | 66.2 µM (inactive) | 38.9 µM (inactive) | > 100 µM (inactive) | 36.8 µM (inactive) | 60.5 µM (inactive) | 83.2 µM (inactive) | 32.1 µM (inactive) | 1.97 µM (inactive) | 99.1 µM (inactive) | 91.4 µM (inactive) | 35.6 µM (inactive) | 93.1 µM (inactive) | > 100 µM (inactive) | > 100 µM (inactive) | > 100 µM (inactive) | 28.1 µM (inactive)
10 | O=C(NCc1cccnc1)NCc1cccnc1 | > 100 µM (inactive) | > 100 µM (inactive) | > 100 µM (inactive) | > 100 µM (inactive) | > 100 µM (inactive) | > 100 µM (inactive) | > 100 µM (inactive) | > 100 µM (inactive) | > 100 µM (inactive) | > 100 µM (inactive) | > 100 µM (inactive) | > 100 µM (inactive) | > 100 µM (inactive) | > 100 µM (inactive) | > 100 µM (inactive) | > 100 µM (inactive)
11 | Nc1nc(O)c(N)c(NCCOCP(=O)(O)O)n1 | > 100 µM (inactive) | > 100 µM (inactive) | > 100 µM (inactive) | > 100 µM (inactive) | > 100 µM (inactive) | > 100 µM (inactive) | > 100 µM (inactive) | > 100 µM (inactive) | > 65.6 µM (inactive) | > 57.1 µM (inactive) | > 100 µM (inactive) | > 100 µM (inactive) | > 100 µM (inactive) | > 100 µM (inactive) | > 100 µM (inactive) | > 100 µM (inactive)
12 | COc1ccc(-n2nnc3c(C#N)c(C)c(-c4ccccc4)n3c2=O)cc1 | 0.413 µM (active) | > 75.2 µM (inactive) | 3.45 µM (inactive) | 1.82 µM (inactive) | 11.3 µM (inactive) | 3.33 µM (inactive) | 10.3 µM (inactive) | 4.33 µM (inactive) | 3.2 µM (inactive) | 4.41 µM (inactive) | 1.99 µM (inactive) | 4.58 µM (inactive) | 2.22 µM (inactive) | 1.62 µM (inactive) | 2.24 µM (inactive) | 1.96 µM (inactive)
13 | Cc1ccc(S(=O)(=O)NNC(=O)Nc2ccc([N+](=O)[O-])cc2)cc1 | > 100 µM (inactive) | 26.2 µM (inactive) | 37.8 µM (inactive) | 26.1 µM (inactive) | 31 µM (inactive) | > 100 µM (inactive) | 22.1 µM (inactive) | 47 µM (inactive) | 72.9 µM (inactive) | 22.8 µM (inactive) | 20 µM (inactive) | 34.6 µM (inactive) | 35.2 µM (inactive) | 83.2 µM (inactive) | 36.6 µM (inactive) | 42.6 µM (inactive)
14 | C=CCC1(OCc2ccccc2)C(=O)C(=O)OC1C1COC(C)(C)O1 (centres undefined) | > 100 µM (inactive) | > 100 µM (inactive) | > 100 µM (inactive) | > 100 µM (inactive) | > 100 µM (inactive) | > 100 µM (inactive) | > 100 µM (inactive) | > 100 µM (inactive) | > 100 µM (inactive) | > 100 µM (inactive) | > 100 µM (inactive) | > 100 µM (inactive) | – | > 100 µM (inactive) | > 100 µM (inactive) | > 100 µM (inactive)
15 | CCCCCC1=C/C(=C\c2[nH]c(-c3ccc[nH]3)cc2OC)N=C1C | < 0.01 µM (active) | < 0.01 µM (active) | 0.0989 µM (active) | < 0.01 µM (active) | 0.0122 µM (active) | 0.0179 µM (active) | < 0.01 µM (active) | 0.011 µM (active) | < 0.01 µM (active) | < 0.01 µM (active) | < 0.01 µM (active) | < 0.01 µM (active) | 0.017 µM (active) | < 0.01 µM (active) | < 0.01 µM (active) | < 0.01 µM (active)
16 | Cc1cn(CC2=NCCCN2)c(=O)[nH]c1=O | > 100 µM (inactive) | – | > 100 µM (inactive) | > 100 µM (inactive) | > 100 µM (inactive) | > 100 µM (inactive) | > 100 µM (inactive) | > 100 µM (inactive) | > 100 µM (inactive) | > 100 µM (inactive) | > 100 µM (inactive) | > 100 µM (inactive) | > 100 µM (inactive) | > 100 µM (inactive) | > 100 µM (inactive) | > 100 µM (inactive)
17 | Nc1c(-c2nc3ccccc3s2)c2ccc([N+](=O)[O-])cc2c(=O)n1-c1cccc(C(=O)O)c1 | 45.1 µM (inactive) | 31.9 µM (inactive) | – | 29.9 µM (inactive) | 23.4 µM (inactive) | – | 17.9 µM (inactive) | 24.1 µM (inactive) | 30.8 µM (inactive) | 21 µM (inactive) | – | 27.5 µM (inactive) | – | 23.3 µM (inactive) | – | 15.8 µM (inactive)
18 | CCOP(=O)(OCC)/C(C#N)=C/c1ccc(-c2cc(C(F)(F)F)cc(C(F)(F)F)c2)o1 | 13.3 µM (inactive) | – | 12.4 µM (inactive) | 11.7 µM (inactive) | 12 µM (inactive) | 13.3 µM (inactive) | 13.7 µM (inactive) | 16.8 µM (inactive) | 10.5 µM (inactive) | – | 3.59 µM (inactive) | 25.1 µM (inactive) | – | 14.6 µM (inactive) | 1.82 µM (inactive) | 7.43 µM (inactive)
